Consider two compounds from patent EP2116263A1, “Reversibly light-switchable drug-conjugates” (priority 2008, dated 2009).

For data set [1], the target named is Recombinant hCyp18 PPIase activity (Homo sapiens, UniProt P62937). In words: Cyp18 PPIase activity, protease coupled assay. In kind it is biochemical. How it is done:
The PPIase activity was measured at 7 °C with a protease coupled assay on a Hewlett-Packard 8452a diode array spectrophotometer (Fischer et al., 1984). To 1220 µl Hepes buffer pH 7.8, Cyp18 and inhibitor of desired concentration are added. After 10 min of incubation, protease and substrate were added. The final substrate concentration is 40 µM in 1280 µl. The cis/trans isomerization was monitor at 390 nm with 510 nm as a reference. The rate is calculated according to first order reaction. Recombinant hCyp18 PPIase activity was measured with the peptide Suc-Ala-Phe-Pro-Phe-NH-Np as substrate. The substrate was dissolved in DMSO (10 mg/ml). α-Chymotrypsin was used as auxiliary protease. The residual enzymatic activity was plotted versus the inhibitor concentration and used for calculating the inhibitor constants Ki as described before (Schutkowski et al., 1995).
PPIase activities are measured with a protease coupled assay, using Suc-Ala-Phe-Pro-Phe-NH-Np as substrate and chymotrypsin as auxiliary protease, in 35 mM HEPES buffer pH 7.8, at 7 °C. Cyp18 concentration is 2.5 nM. […] Irradiations have been performed with light of 740 nm for 45 min. […]

Data set [2] concerns the target calcineurin (CaN) phosphatase activity (Homo sapiens, UniProt P62937+P63098+Q08209). In words: Calcineurin (CaN) phosphatase activity inhibition assay in the presence of Cyp18. Conditions: for change of CaN inhibition between cis and trans forms / upon light irradiation: in the presence of Cyp18, absence of SA. As for the experimental part: The reaction mixture containing 700 µM peptide, 0.2 µM cAMP, 100 µCi[γ-^33P]ATP and 10 kU PKA in a final volume of 100 µl in the buffer (containing 20 mM MES, pH 6.5, 0.4 mM EDTA, 0.2 mM EGTA, 50 µM CaCl2 and 2 mM MgCl2) was incubated for one hour at 30 °C. The phosphorylated peptides were separated from unincorporated labeled ATP by 1 ml RP-C2 clean up extraction column (Amchro, Sulzbach, Germany). The eluted peptide (with 70% acetonitrile) was lyophilized and reconstituted with de-ionized water.
The scintillation proximity concept has been applied for measuring calcineurin activity using ScintiPlate wells coated with streptavidin. […] Biotinylated [γ-^33P] RII peptide was added to a final concentration of 100 nM and the total assay volume is 100 µl. After incubation at 30 °C for 30 min, 90 µl of the reaction mixture was transferred to the ScintiPlate well coated with streptavidin. The streptavidin immobilizes the biotinylated RII peptide on the wells. After 20 min at 22 °C the well was washed once with water and the RII associated [γ-^33P] was measured in the top-counter MicroBeta (Wallac, Turku, Finland).

For data set [3], the target named is Cyp18/CsA-AB-CsA/Cyp18 tertiary complex (Homo sapiens, UniProt P62937). In words: Coprecipitation of His4-Cyp18 with GST-Cyp18 matrix on glutathione-Sepharose. Format: binding.
Description: The proteins were eluted by boiling with sample buffer and separated by SDS-PAGE, transferred onto nitrocellulose membrane and probed with anti-His and anti-GST antibodies.
In a further data set the test system is CaN and Cyp18. In words: Cross-linking (BS3) of CaN and Cyp18 in treated Jurkat cells, anti-CaN blot. In kind it is cell-based, human.

Entries after “also recorded” stand apart in the source; their conditions may differ. Like-named read-outs stand apart in the source and are kept apart here.

Chain of Recombinant hCyp18 PPIase activity (P62937 whole entry): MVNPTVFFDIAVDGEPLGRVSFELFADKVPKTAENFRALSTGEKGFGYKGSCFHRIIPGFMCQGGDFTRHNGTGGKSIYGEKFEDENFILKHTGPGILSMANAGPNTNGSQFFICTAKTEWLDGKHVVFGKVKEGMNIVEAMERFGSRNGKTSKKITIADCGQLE
Chain of Cyp18/CsA-AB-CsA/Cyp18 tertiary complex (P62937 whole entry, one chain of several): as the sequence (P62937 whole entry) above
Protocol for CaN and Cyp18: Cells were lysed and the clear supernatants were incubated with calmodulin sepharose. Cross-linking reagent BS^3 was added to the EDTA eluates. After TCA precipitation, the samples were separated by SDS-PAGE and probed with anti-CaN antibody and detected by enhanced chemiluminescent reaction.

The IC50 is the midpoint of a concentration-inhibition curve. In the case of `C/C=C/C[C@@H](C)[C@@H](O)[C@H]1C(=O)N[C@@H](CC)C(=O)N(C)CC(=O)N(C)[C@@H](CC(C)C)C(=O)N[C@@H](C(C)C)C(=O)N(C)[C@@H](CC(C)C)C(=O)N[C@@H](C)C(=O)N[C@H](COCC(=O)Nc2ccc(N=Nc3ccc(NC(=O)COC[C@H]4NC(=O)[C@H](C)NC(=O)[C@H](CC(C)C)N(C)C(=O)[C@H](C(C)C)NC(=O)[C@H](CC(C)C)N(C)C(=O)CN(C)C(=O)[C@H](CC)NC(=O)[C@H]([C@H](O)[C@H](C)C/C=C/C)N(C)C(=O)[C@H](C(C)C)N(C)C(=O)[C@H](CC(C)C)N(C)C(=O)[C@H](CC(C)C)N(C)C4=O)cc3)cc2)C(=O)N(C)[C@@H](CC(C)C)C(=O)N(C)[C@@H](CC(C)C)C(=O)N(C)[C@@H](C(C)C)C(=O)N1C` [CsA-AB-CsA], the “increase of inhibitory potency towards the PPIase activity of Cyp18, cis compared to trans” value in data set [1] (irradiated cis vs non-irradiated trans) turned out to be 7 fold. Also, the “Cyp18 inhibitory profile after thermal cis to trans isomerization” value in data set [1] (irradiated sample kept in darkness overnight at room temperature) is on record as “reversed”. The IC50 is 30 ± 3 nM in data set [1] (irradiated, cis, absence of SA, Cyp18 2.5 nM, 7 °C, read-out: IC50, inhibition of Cyp18 PPIase activity) and 206 ± 22 nM in data set [1] (non-irradiated, trans, absence of SA, Cyp18 2.5 nM, 7 °C, read-out: IC50, inhibition of Cyp18 PPIase activity). Moreover, in data set [2], the “change of CaN inhibition between cis and trans forms / upon light irradiation” value is given as “significant increase”. Besides, the “coprecipitation of His4-Cyp18 with GST-Cyp18” value was “coprecipitated together with GST-Cyp18” in data set [3] (photoswitched cis (irradiated)) and “only a minor amount” in data set [3] (trans (non-irradiated)).

Usually inhibition stands for the percentage by which the read-out fell short of the control. On to `C/C=C/C[C@@H](C)[C@@H](O)[C@H]1C(=O)N[C@@H](CC)C(=O)N(C)CC(=O)N(C)[C@@H](CC(C)C)C(=O)N[C@@H](C(C)C)C(=O)N(C)[C@@H](CC(C)C)C(=O)N[C@@H](C)C(=O)N[C@H](COCC(=O)Nc2ccc(N=Nc3ccc(NC(=O)CCCC[C@@H]4SC[C@@H]5NC(=O)N[C@@H]54)cc3)cc2)C(=O)N(C)[C@@H](CC(C)C)C(=O)N(C)[C@@H](CC(C)C)C(=O)N(C)[C@@H](C(C)C)C(=O)N1C` [CsA-AB-Biotin], for which the IC50 came to 4.45 ± 0.55 nM in data set [1] (IC50, inhibition of Cyp18 PPIase activity, cis isomer bound to the borrowed protein SA (4 equivalents)); 2.21 ± 0.02 nM in data set [1] (IC50, inhibition of Cyp18 PPIase activity, irradiated, cis, absence of SA, Cyp18 2.5 nM, 7 °C); 2.96 ± 0.68 nM in data set [1] (IC50, inhibition of Cyp18 PPIase activity, non-irradiated, trans, absence of SA, Cyp18 2.5 nM, 7 °C); 9.37 ± 0.75 nM in data set [1] (IC50, inhibition of Cyp18 PPIase activity, trans isomer bound to the borrowed protein SA (4 equivalents)). In addition, the “trans/cis difference of activity in CaN inhibition assay” value in data set [2] (absence of SA) amounted to 1.4. Moreover, the “change of CaN inhibition between cis and trans forms / upon light irradiation” value in data set [2] is “only a minor change”. In data set [2] (non-irradiated (trans), in the presence of SA), the “IC50, CaN inhibition” value was “too high to be determined precisely”. The inhibition at 10 µM in data set [2] (read-out: CaN inhibition) is 30%. For the same compound, the “cross-linking between CaN and Cyp18” value is on record as “intensive cross-linking” with CaN and Cyp18 (absence of SA, conjugate in photoswitched cis form); “weakest cross-linking effect” with CaN and Cyp18 (cells transfected with SA, non-irradiated trans). Besides, in the data set on CaN and Cyp18 (cells transfected with SA, cis), the “cross-linked CaN-Cyp18-SA” value is recorded as “detected only in sample treated with cis-CsA-AB-Biotin; also recorded: can only be detected in samples treated with cis-CsA-AB-Biotin”. Further, the “interaction of the Cyp18-trans-CsA-AB-Biotin-SA complex with CaN” value with CaN and Cyp18 (cells transfected with SA, trans) was “does not interact with CaN”.
